Some results are limits rather than exact numbers.

For the assay, the target named is T1, F508delCFTR (Homo sapiens, UniProt P13569, DEL508-508).
T1 construct: expressed in transfected cells; host or cells: CFBE41o- (CFBE41o-F508delCFTR-HRP), doxycycline-inducible
As to the kind of experiment: Cell Surface Expression-Horse Radish Peroxidase (CSE-HRP) assay. In kind it is cell-based. The note with it: CFBE41o-F508delCFTR-HRP cells; for EC50: cell surface expression, luminescence readout, 18-24 hours at 33° C., highest concentration tested 20 μM, 8-point curve; for Maximum % activity: maximum at any tested concentration, normalized to on-plate positive control (3 μM) and DMSO. From the text: Cell Surface Expression-Horse Radish Peroxidase (CSE-HRP) Assay:
A cellular assay for measuring the F508delCFTR cell surface expression after correction with test compounds was developed in human lung derived epithelial cell line (CFBE41o-) (Veit G et al, (2012) Mol Biol Cell. 23(21): 4188-4202). This was achieved by expressing the F508delCFTR mutation along with a horseradish peroxidase (HRP) in the fourth exofacial loop and then measuring the HRP activity using luminescence readout from these cells, CFBE41o-F508delCFTR-HRP, that were incubated overnight with the test corrector compounds. Briefly, for this primary assay, the CFBE41o-F508delCFTR-HRP cells were plated in 384-well plates (Greiner Bio-one; Cat 781080) at 4,000 cells/well along with 0.5 μg/mL doxycycline to induce the F508delCFTR-HRP expression and further incubated at 37° C., 5% CO2 for 72 hours. The test compounds were then added at the required concentrations and further incubated for 18-24 hours at 33° C. The highest concentration tested was 20 μM with an 8-point concentration response curve using a 3-fold dilution. Three replicate plates were run to determine one EC50. All plates contained negative controls (dimethyl sulfoxide, DMSO) and positive controls (3 μM of 3-[(2R,4R)-4-({[1-(2,2-difluoro-1,3-benzodioxol-5-yl)cyclopropyl]carbonyl}amino)-7-methoxy-3,4-dihydro-2H-chromen-2-yl]benzoic acid) as well as on-plate concentration response of the positive control. Post incubation, the plates were washed 5× times with Dulbecco's phosphate buffered saline (DPBS), followed by the addition of the HRP substrate, luminol (50 μL), and measuring the HRP activity using luminescence readout on EnVision® Multilabel Plate Reader (Perkin Elmer; product number 2104-0010). The raw counts from the experiment are analyzed using Accelrys® Assay Explorer v3.3.
Z′ greater than 0.5 was used as passing quality control criteria for the plates.
The Z′ is defined as: 1−[3*SDPositive Control+3*SDNegative Control/Absolute(MeanPositive Control−MeanNegative Control)],
wherein “SD” is standard deviation.
The % activity measured at each of the 8 test concentrations of the test compound was normalized to the on-plate positive control using the following formula: % activity=[(test compound response−DMSO response)/(positive control response−DMSO response)]*100
The maximum % activity achieved for the test compound at any tested concentration is presented in Table 1 along with the EC50 calculated using the following general sigmoidal curve with variable Hill slope equation (described as Model 42 in the Accelrys® Assay Explorer v3.3 software): y=(a−d)/(1+(x/c)^b)+d General sigmoidal curve with concentration, response, top, bottom, EC50 and Hill slope.
This model describes a sigmoidal curve with an adjustable baseline, a. The equation can be used to fit curves where response is either increasing or decreasing with respect to the independent variable, “x”.
“x” is a concentration of drug under test.
“a” is the maximum response, and “d” is the minimum response
“c” is the inflection point (EC50) for the curve. That is, “y” is halfway between the lower and upper asymptotes when x=c.
“b” is the slope-factor or Hill coefficient. The sign of b is positive when the response increases with increasing dose and is negative when the response decreases with increasing dose (inhibition).

T1 sequence (P13569 with tags, fused parts or gaps DEL508-508): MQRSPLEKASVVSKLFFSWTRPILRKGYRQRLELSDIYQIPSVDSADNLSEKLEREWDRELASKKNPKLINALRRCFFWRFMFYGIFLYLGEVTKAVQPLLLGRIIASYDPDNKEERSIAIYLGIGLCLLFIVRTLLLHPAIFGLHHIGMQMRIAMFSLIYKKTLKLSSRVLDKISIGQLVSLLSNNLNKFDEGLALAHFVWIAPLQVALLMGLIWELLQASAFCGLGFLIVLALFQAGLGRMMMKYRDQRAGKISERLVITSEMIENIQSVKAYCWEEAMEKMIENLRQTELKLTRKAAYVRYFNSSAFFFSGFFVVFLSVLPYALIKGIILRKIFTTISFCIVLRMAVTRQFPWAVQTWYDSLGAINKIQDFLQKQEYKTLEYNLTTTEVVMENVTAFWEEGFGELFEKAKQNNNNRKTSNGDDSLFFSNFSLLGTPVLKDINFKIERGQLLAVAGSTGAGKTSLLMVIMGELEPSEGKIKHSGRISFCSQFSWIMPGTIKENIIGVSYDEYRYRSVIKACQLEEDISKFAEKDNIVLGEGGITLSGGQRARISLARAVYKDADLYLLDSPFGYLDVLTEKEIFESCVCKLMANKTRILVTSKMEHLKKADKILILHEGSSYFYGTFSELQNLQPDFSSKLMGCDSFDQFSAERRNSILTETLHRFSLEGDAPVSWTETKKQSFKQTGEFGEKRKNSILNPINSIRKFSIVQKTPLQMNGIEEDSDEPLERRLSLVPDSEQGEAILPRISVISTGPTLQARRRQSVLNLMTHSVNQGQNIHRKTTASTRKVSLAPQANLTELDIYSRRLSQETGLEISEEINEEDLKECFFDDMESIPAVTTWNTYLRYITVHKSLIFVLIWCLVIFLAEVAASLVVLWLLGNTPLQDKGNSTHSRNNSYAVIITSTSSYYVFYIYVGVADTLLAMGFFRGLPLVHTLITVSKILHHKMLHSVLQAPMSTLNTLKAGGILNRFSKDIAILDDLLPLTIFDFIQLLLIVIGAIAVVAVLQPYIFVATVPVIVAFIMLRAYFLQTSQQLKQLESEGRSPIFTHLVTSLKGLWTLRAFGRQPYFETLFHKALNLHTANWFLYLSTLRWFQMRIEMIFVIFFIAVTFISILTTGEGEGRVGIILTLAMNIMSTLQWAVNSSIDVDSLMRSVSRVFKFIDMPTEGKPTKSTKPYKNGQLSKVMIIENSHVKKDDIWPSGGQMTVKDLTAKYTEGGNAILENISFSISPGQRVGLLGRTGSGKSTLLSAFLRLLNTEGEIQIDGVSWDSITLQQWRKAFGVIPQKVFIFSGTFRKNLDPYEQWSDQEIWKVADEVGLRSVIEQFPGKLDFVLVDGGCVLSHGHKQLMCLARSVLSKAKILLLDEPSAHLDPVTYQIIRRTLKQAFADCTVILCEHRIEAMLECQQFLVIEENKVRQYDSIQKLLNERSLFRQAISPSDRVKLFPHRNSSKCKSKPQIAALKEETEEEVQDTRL

On to `O=C(N[C@H]1CCO[C@@H](c2ccccc2)C1)C1(c2ccc3c(c2)OC(F)(F)O3)CC1` (racemic) [Example 1, rac-1-(2,2-difluoro-1,3-benzodioxol-5-yl)-N-[(2R,4S)-2-phenyltetrahydro-2H-pyran-4-yl]cyclopropanecarboxamide], for which the EC50 was 1700 nM and the Maximum % activity stood at 62%.
With `O=C(O)c1cccc([C@H]2C[C@@H](NC(=O)C3(c4ccc5c(c4)OC(F)(F)O5)CC3)CCO2)c1` (racemic) [Example 2, rac-3-[(2R,4S)-4-({[1-(2,2-difluoro-1,3-benzodioxol-5-yl)cyclopropyl]carbonyl}amino)tetrahydro-2H-pyran-2-yl]benzoic acid], it took 850 nM to reach a half-maximal effect (EC50) and the Maximum % activity was 71%.
For `COC(=O)c1cccc([C@H]2C[C@@H](NC(=O)C3(c4ccc5c(c4)OC(F)(F)O5)CC3)CCO2)c1` (racemic) [Example 3, methyl rac-3-[(2R,4S)-4-({[1-(2,2-difluoro-1,3-benzodioxol-5-yl)cyclopropyl]carbonyl}amino)tetrahydro-2H-pyran-2-yl]benzoate] the same measures were 1410 nM and 64%.
In the case of `COC(=O)c1cccc([C@H]2C[C@H](NC(=O)C3(c4ccc5c(c4)OC(F)(F)O5)CC3)CCO2)c1` (racemic) [Example 4, methyl rac-3-[(2R,4R)-4-({[1-(2,2-difluoro-1,3-benzodioxol-5-yl)cyclopropyl]carbonyl}amino)tetrahydro-2H-pyran-2-yl]benzoate], the midpoint of the response, the EC50, lay at 3110 nM and the Maximum % activity amounted to 23%.
Regarding `O=C(O)c1cccc([C@H]2C[C@H](NC(=O)C3(c4ccc5c(c4)OC(F)(F)O5)CC3)CCO2)c1` (racemic) [Example 5, rac-3-[(2R,4R)-4-({[1-(2,2-difluoro-1,3-benzodioxol-5-yl)cyclopropyl]carbonyl}amino)tetrahydro-2H-pyran-2-yl]benzoic acid], the EC50 was not below 20000 nM and the Maximum % activity is reported as 13%.
The corresponding values for `O=C(N[C@@H]1CCO[C@@H](c2cccc(CO)c2)C1)C1(c2ccc3c(c2)OC(F)(F)O3)CC1` (racemic) [Example 6, rac-1-(2,2-difluoro-1,3-benzodioxol-5-yl)-N-{(2R,4R)-2-[3-(hydroxymethyl)phenyl]tetrahydro-2H-pyran-4-yl}cyclopropanecarboxamide] are 5150 nM and 32%.
`CC(C)(O)c1cccc([C@H]2C[C@H](NC(=O)C3(c4ccc5c(c4)OC(F)(F)O5)CC3)CCO2)c1` (racemic) [Example 7, rac-1-(2,2-difluoro-1,3-benzodioxol-5-yl)-N-{(2R,4R)-2-[3-(2-hydroxypropan-2-yl)phenyl]tetrahydro-2H-pyran-4-yl}cyclopropanecarboxamide]: the midpoint of the response, the EC50, lay at 5560 nM and the Maximum % activity was 27%.
Take `CC(=O)c1cccc([C@H]2C[C@@H](NC(=O)C3(c4ccc5c(c4)OC(F)(F)O5)CC3)CCO2)c1` (racemic) [Example 8, rac-N-[(2R,4S)-2-(3-acetylphenyl)tetrahydro-2H-pyran-4-yl]-1-(2,2-difluoro-1,3-benzodioxol-5-yl)cyclopropanecarboxamide]: a half-maximal effect (EC50) was put at 1390 nM and the Maximum % activity is recorded as 57%.
In the case of `O=C(N[C@H]1CCO[C@@H](c2cccc(CO)c2)C1)C1(c2ccc3c(c2)OC(F)(F)O3)CC1` (racemic) [Example 9, rac-1-(2,2-difluoro-1,3-benzodioxol-5-yl)-N-{(2R,4S)-2-[3-(hydroxymethyl)phenyl]tetrahydro-2H-pyran-4-yl}cyclopropanecarboxamide], the 50% effective concentration (EC50) came to 2260 nM and the Maximum % activity is 61%.
For `CC(C)(O)c1cccc([C@H]2C[C@@H](NC(=O)C3(c4ccc5c(c4)OC(F)(F)O5)CC3)CCO2)c1` (racemic) [Example 10, rac-1-(2,2-difluoro-1,3-benzodioxol-5-yl)-N-{(2R,4S)-2-[3-(2-hydroxypropan-2-yl)phenyl]tetrahydro-2H-pyran-4-yl}cyclopropanecarboxamide], the EC50 came to 2090 nM and the Maximum % activity is given as 58%.
Take `COC(=O)c1ccccc1[C@H]1C[C@@H](NC(=O)C2(c3ccc4c(c3)OC(F)(F)O4)CC2)CCO1` (racemic) [Example 11, methyl rac-2-[(2R,4S)-4-({[1-(2,2-difluoro-1,3-benzodioxol-5-yl)cyclopropyl]carbonyl}amino)tetrahydro-2H-pyran-2-yl]benzoate]: the EC50 turned out to be 900 nM and the Maximum % activity was found to be 116%.
The corresponding values for `O=C(O)c1ccccc1[C@H]1C[C@@H](NC(=O)C2(c3ccc4c(c3)OC(F)(F)O4)CC2)CCO1` (racemic) [Example 12, rac-2-[(2R,4S)-4-({[1-(2,2-difluoro-1,3-benzodioxol-5-yl)cyclopropyl]carbonyl}amino)tetrahydro-2H-pyran-2-yl]benzoic acid] are 7630 nM and 108%.
For `COC(=O)c1ccc([C@H]2C[C@@H](NC(=O)C3(c4ccc5c(c4)OC(F)(F)O5)CC3)CCO2)cc1` (racemic) [Example 13, methyl rac-4-[(2R,4S)-4-({[1-(2,2-difluoro-1,3-benzodioxol-5-yl)cyclopropyl]carbonyl}amino)tetrahydro-2H-pyran-2-yl]benzoate] the same measures were 1160 nM and 110%.
Take `COC(=O)c1cccc([C@H]2C[C@H](NC(=O)C3(c4ccc5c(c4)OC(F)(F)O5)CC3)C[C@@H](c3ccccc3)O2)c1` (racemic) [Example 22, methyl rac-3-[(2R,4R,6S)-4-({[1-(2,2-difluoro-1,3-benzodioxol-5-yl)cyclopropyl]carbonyl}amino)-6-phenyltetrahydro-2H-pyran-2-yl]benzoate]: the EC50 worked out at 2180 nM and the Maximum % activity came out at 63%.
For `COC(=O)c1cccc([C@H]2C[C@@H](NC(=O)C3(c4ccc5c(c4)OC(F)(F)O5)CC3)C[C@@H](c3ccccc3)O2)c1` (racemic) [Example 23, methyl rac-3-[(2R,4S,6S)-4-({[1-(2,2-difluoro-1,3-benzodioxol-5-yl)cyclopropyl]carbonyl}amino)-6-phenyltetrahydro-2H-pyran-2-yl]benzoate] the same measures were 850 nM and 104%.
`O=C(O)c1cccc([C@H]2C[C@H](NC(=O)C3(c4ccc5c(c4)OC(F)(F)O5)CC3)C[C@@H](c3ccccc3)O2)c1` (racemic) [Example 25, rac-3-[(2R,4R,6S)-4-({[1-(2,2-difluoro-1,3-benzodioxol-5-yl)cyclopropyl]carbonyl}amino)-6-phenyltetrahydro-2H-pyran-2-yl]benzoic acid]: the EC50 worked out at 2020 nM and the Maximum % activity stood at 108%.
Regarding `COC(=O)c1ccc([C@H]2C[C@H](NC(=O)C3(c4ccc5c(c4)OC(F)(F)O5)CC3)CC(C)(C)O2)cc1` (racemic) [Example 32, methyl rac-4-[(2R,4S)-4-({[1-(2,2-difluoro-1,3-benzodioxol-5-yl)cyclopropyl]carbonyl}amino)-6,6-dimethyltetrahydro-2H-pyran-2-yl]benzoate], a half-maximal effect (EC50) was put at 4120 nM and the Maximum % activity is listed as 69%.
The corresponding values for `CC1(C)C[C@@H](NC(=O)C2(c3ccc4c(c3)OC(F)(F)O4)CC2)C[C@H](c2ccc(C(=O)O)cc2)O1` (racemic) [Example 33, rac-4-[(2R,4S)-4-({[1-(2,2-difluoro-1,3-benzodioxol-5-yl)cyclopropyl]carbonyl}amino)-6,6-dimethyltetrahydro-2H-pyran-2-yl]benzoic acid] are 3890 nM and 102%.

As a reminder, the EC50 is the concentration that produces a half-maximal response. High values mean lower potency in that assay, low ones higher potency in that assay.

For the origin of these results see patent US9567322B2, “Substituted tetrahydropyrans and method of use” (AbbVie S.á.r.l., priority 2014, dated 2017).
